This passage reports TGI and GI50 results from PubChem BioAssay (NCI).

Test systems include SF-268 CNS; U251 CNS; SF-295 CNS; RPMI-8226 leukemia; KM12 colon; A549 NSCLC; SNB-19 CNS; NCI/ADR-RES ovarian; SNB-75 CNS; MDA-MB-231 breast; MDA-MB-435.
Holding throughout (assay): growth of human tumour cells (NCI), 48 h

SMILES strings stand for the structures.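 In this assay, cells in 96-well plates receive the compound at five concentrations for 48 hours. Endpoints are linearly interpolated between the surrounding concentrations. GI50: concentration for 50% inhibition of growth. At the TGI there is no net growth.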 Where only a bound is given, the exact number is not on record here.

With `CN1N=C2c3ccccc3CC[C@H]2C1c1ccccc1` (stereo partly specified), the TGI in the test on SF-268 CNS, in the test with U251 CNS, in the test on SF-295 CNS, in the test with RPMI-8226 leukemia, in the test with KM12 colon and in the test on A549 NSCLC was > 100 µM in each case. Moreover, the TGI in the test on SNB-19 CNS was > 100 µM.

With `COC(=O)[C@@H]1c2cc3c(c(O)c2[C@@H](OC)C[C@@]1(C)O)C(=O)c1c(O)cc2c(c1C3=O)OC1O[C@@]2(C)[C@H](O)[C@@H](N(C)C)[C@@H]1O`, the TGI in the test on SF-268 CNS was 3.02 µM; in the test with U251 CNS, 1.92 µM; in the test on SF-295 CNS, 0.97 µM; with RPMI-8226 leukemia, > 150 µM; in the test on NCI/ADR-RES ovarian it was 4.22 µM; in the test with SNB-75 CNS, 0.977 µM. The TGI in the test with KM12 colon worked out at 2.34 µM; in the test on A549 NSCLC it was 1.45 µM; in the test with SNB-19 CNS, 2.37 µM.

On to `C=C(C)C1Cc2c(cc(O)c3c(=O)c4ccccc4n(C)c23)O1` (stereo unspecified), for which the TGI in the test on SF-268 CNS is 73 µM; in the test on U251 CNS, > 100 µM; with SF-295 CNS it was 79.6 µM; with RPMI-8226 leukemia it was > 100 µM; in the test on SNB-75 CNS it was 37.2 µM; in the test on KM12 colon, > 100 µM. The TGI in the test with A549 NSCLC was > 100 µM; in the test with SNB-19 CNS, 34.5 µM.

As to `CN1CCN(CC(=O)Nc2ccc3ncnc(Nc4ccc(Oc5cccc(C(F)(F)F)c5)c(Cl)c4)c3c2)CC1`, the GI50 was 1490 nM with SF-268 CNS; 1.81 µM in the test with SF-295 CNS; 1780 nM in the test on MDA-MB-231 breast; 1350 nM in the test with SNB-75 CNS; 1790 nM in the test on KM12 colon; 1580 nM in the test with MDA-MB-435. Also, the TGI in the test on SF-268 CNS came out at 3.11 µM; with SF-295 CNS it was 3.31 µM; in the test on MDA-MB-231 breast, 3.3 µM; in the test on SNB-75 CNS, 2.67 µM; in the test with KM12 colon, 3.3 µM; in the test with MDA-MB-435, 2.97 µM.

`O=c1ccc2ccccc2o1`: the TGI with SF-268 CNS, in the test on U251 CNS, in the test with SF-295 CNS, in the test on RPMI-8226 leukemia, in the test on SNB-75 CNS and in the test on KM12 colon was > 100 µM in each case. The TGI with A549 NSCLC and in the test with SNB-19 CNS was > 100 µM in each case.

As for `C=C1C(=O)OC2/C=C(\C)C(O)CC(O)C(C)(O)CC(OC(=O)/C(C)=C/C)C12` (stereo unspecified), the TGI in the test on SF-268 CNS was > 100 µM; with U251 CNS, > 100 µM; in the test with SF-295 CNS, > 100 µM; with RPMI-8226 leukemia, 74.2 µM; in the test with MDA-MB-231 breast it was > 100 µM; in the test with SNB-75 CNS it was > 94.2 µM. Further, the TGI in the test on KM12 colon was > 75.8 µM; in the test with A549 NSCLC, > 100 µM; in the test on SNB-19 CNS, > 100 µM; with MDA-MB-435 it was > 100 µM.

`C=C1CC/C=C(/C(=O)O)CC[C@H]2[C@@H]1CC2(C)C`: the TGI with SF-268 CNS, in the test on U251 CNS, in the test on SF-295 CNS, with RPMI-8226 leukemia, with MDA-MB-231 breast and with KM12 colon was > 100 µM in each case. For the same compound, the TGI in the test with A549 NSCLC, in the test with SNB-19 CNS and with MDA-MB-435 was > 100 µM throughout.

As to `CC(C)(C)NC(NC(C)(C)C)=C(C(Cl)=C(Cl)Cl)[N+](=O)[O-]`, the TGI in the test with SF-268 CNS, with U251 CNS, with SF-295 CNS, in the test with RPMI-8226 leukemia, with NCI/ADR-RES ovarian and in the test on MDA-MB-231 breast was > 100 µM in each case. Moreover, the TGI in the test with SNB-75 CNS, in the test on KM12 colon, in the test with A549 NSCLC and in the test on SNB-19 CNS was > 100 µM in each case.

On to `[Cl-].[Rh+3].c1ccc(-c2ccnc3c2ccc2c(-c4ccccc4)ccnc23)cc1.c1ccc(-c2ccnc3c2ccc2c(-c4ccccc4)ccnc23)cc1.c1ccc(-c2ccnc3c2ccc2c(-c4ccccc4)ccnc23)cc1`, for which the TGI in the test on SF-268 CNS, in the test on U251 CNS, in the test on SF-295 CNS, in the test with RPMI-8226 leukemia, with NCI/ADR-RES ovarian and in the test with SNB-75 CNS was > 100 µM each time. Also, the figures for the TGI in the test on KM12 colon, in the test with A549 NSCLC and in the test on SNB-19 CNS were 19.7 µM, > 100 µM and > 100 µM, respectively. In addition, the results for the GI50 with SF-295 CNS, in the test with RPMI-8226 leukemia and in the test with NCI/ADR-RES ovarian were 31.3 µM, 29.2 µM and 73.2 µM, respectively.

As for `Nc1nc2c(ncn2CCOC(c2ccccc2)P(=O)(O)O)c(=O)[nH]1` (stereo unspecified), the TGI with SF-268 CNS, with U251 CNS, in the test with SF-295 CNS, in the test with SNB-75 CNS, in the test on KM12 colon and in the test on A549 NSCLC was > 100 µM in each case. For the same compound, the TGI in the test on SNB-19 CNS is > 100 µM.

Turning to `C/C(Cl)=N\OC(=O)Nc1ccccc1C(F)(F)F`, the TGI in the test on SF-268 CNS was > 100 µM; in the test with U251 CNS, > 100 µM; with SF-295 CNS, > 100 µM; with RPMI-8226 leukemia, 45.2 µM; in the test with NCI/ADR-RES ovarian, 47.5 µM; in the test on MDA-MB-231 breast it was 46.9 µM. Also, the TGI with SNB-75 CNS, in the test with KM12 colon, with A549 NSCLC and with SNB-19 CNS was > 100 µM each time.

Regarding `CN(C)CCNCc1c2ccccc2c(CNCCN(C)C)c2ccccc12`, the TGI with SF-268 CNS was > 90.5 µM; with U251 CNS, 56.9 µM; with SF-295 CNS it was > 100 µM; with RPMI-8226 leukemia, > 100 µM; with NCI/ADR-RES ovarian it was > 100 µM; in the test on SNB-75 CNS, > 100 µM. For the same compound, the TGI was > 100 µM in the test with KM12 colon and > 59.9 µM in the test with A549 NSCLC.

Regarding `Cc1cccc(-c2cc(=O)c3ccc(C)nc3[nH]2)c1`, the TGI with SF-268 CNS was > 100 µM; in the test with U251 CNS, > 100 µM; in the test on SF-295 CNS, 14.9 µM; with RPMI-8226 leukemia, 23.2 µM; in the test with NCI/ADR-RES ovarian it was 0.383 µM; with MDA-MB-231 breast it was 5.87 µM. The TGI in the test with SNB-75 CNS was 49.2 µM; in the test with KM12 colon it was 20.5 µM; with A549 NSCLC, > 100 µM; in the test on SNB-19 CNS, > 100 µM.

For the compound `COC1=CC(=O)C(O)=C(C[C@@]2(C)[C@@H]3CCC[C@H](COC(=O)CCCCCNC(=O)OC(C)(C)C)[C@@]3(C)CC[C@@H]2C)C1=O`, the TGI with SF-268 CNS, in the test with U251 CNS, with SF-295 CNS, with RPMI-8226 leukemia, in the test with MDA-MB-231 breast and in the test on SNB-75 CNS was > 10 µM each time. Further, the TGI with KM12 colon, in the test with A549 NSCLC, in the test with SNB-19 CNS and with MDA-MB-435 was > 10 µM throughout.

`O=C(O)Cc1ccc(N2N=C(c3ccccc3)CC2=O)cc1`: the TGI in the test with SF-268 CNS, with U251 CNS, in the test on SF-295 CNS, with NCI/ADR-RES ovarian, with MDA-MB-231 breast and in the test with SNB-75 CNS was > 100 µM throughout. The TGI in the test with KM12 colon and in the test with SNB-19 CNS was > 100 µM each time.

`COc1ccc(/C(Cl)=C(\C=O)c2ccc(F)cc2)cc1`: the TGI with SF-268 CNS was 89.3 µM; in the test on U251 CNS, 23.5 µM; in the test with SF-295 CNS, 31.6 µM; with RPMI-8226 leukemia, 44.6 µM; in the test with SNB-75 CNS, 8.33 µM; with SNB-19 CNS it was > 100 µM.

`CC1=C(C2=C(C)C(=O)C(=O)c3cc(C)ccc32)c2ccc(C)cc2C(=O)C1=O`: the TGI in the test on U251 CNS is 0.685 µM; in the test with SF-295 CNS it was 0.373 µM; with RPMI-8226 leukemia, 0.705 µM; with MDA-MB-231 breast it was 0.91 µM; in the test on SNB-75 CNS, 0.868 µM; in the test on KM12 colon it was 0.447 µM. The TGI in the test on A549 NSCLC was determined as 2.73 µM; in the test on SNB-19 CNS, 0.31 µM.

Consider `CCOC(=O)CCC(C(=O)OCC)n1nc2ccc(Nc3c(C)[n+]([O-])c4cc(Cl)ccc4[n+]3[O-])cc2n1` (stereo unspecified), for which the TGI in the test with SF-268 CNS, in the test with U251 CNS, with SF-295 CNS, in the test on RPMI-8226 leukemia, with NCI/ADR-RES ovarian and in the test with SNB-75 CNS was > 100 µM throughout. Further, the TGI with KM12 colon, with A549 NSCLC, with SNB-19 CNS and in the test with MDA-MB-435 was > 100 µM each time.

Turning to `O=C(CSc1nnc(Cc2ccccc2)o1)Nc1ccc(Cl)cc1`, the TGI in the test on U251 CNS, in the test with SF-295 CNS, with RPMI-8226 leukemia, in the test on SNB-75 CNS, in the test on KM12 colon and in the test with A549 NSCLC was > 100 µM throughout. Besides, the TGI in the test with SNB-19 CNS is > 100 µM.

For `O=[N+]([O-])c1ccc(/C=C/c2ccc(N=Nc3ccc(/C=C/c4ccc([N+](=O)[O-])cc4S(=O)(=O)O)c(S(=O)(=O)O)c3)cc2S(=O)(=O)O)c(S(=O)(=O)O)c1`, the TGI with SF-268 CNS, with U251 CNS, with SF-295 CNS, with NCI/ADR-RES ovarian, in the test with SNB-75 CNS and with KM12 colon was > 100 µM each time. Also, the TGI in the test with A549 NSCLC is > 100 µM.

On to `C[n+]1c2ccccc2c(CNC(CCC(N)=O)C(=O)O)c2ccccc21` (stereo unspecified), for which the TGI came to 6.71 µM with SF-268 CNS; 12.8 µM in the test with U251 CNS; 16 µM in the test with SF-295 CNS; 2.54 µM with RPMI-8226 leukemia; 14 µM in the test with NCI/ADR-RES ovarian; 12.5 µM with SNB-75 CNS. Besides, the TGI in the test on KM12 colon worked out at 9 µM; in the test with A549 NSCLC it was 11.8 µM; in the test on SNB-19 CNS, 16.3 µM; in the test with MDA-MB-435 it was 9.95 µM.
